According to ChEMBL document CHEMBL4138123, “Design, synthesis and biological evaluation of novel pyrazolochalcones as potential modulators of PI3K/Akt/mTOR pathway and inducers of apoptosis in breast cancer cells” (Eur J Med Chem, 2017):

What was measured:
[1] = tested on: HL-60(TB); assay: Cytotoxicity against human HL-60(TB) cells assessed as growth inhibition after 48 hrs by sulforhodamine B assay; format: functional; conditions: HL-60, 48 h
[2] = tested on: HOP-62; assay: Cytotoxicity against human HOP62 cells assessed as growth inhibition after 48 hrs by sulforhodamine B assay; format: functional; conditions: HOP-62, 48 h
[3] = tested on: NCI-H23; assay: Cytotoxicity against human NCI-H23 cells assessed as growth inhibition after 48 hrs by sulforhodamine B assay; format: functional; conditions: NCI-H23, 48 h; for CC50: read-out: LC50 (the source's name)
[4] = tested on: U-251; assay: Cytotoxicity against human U251 cells assessed as growth inhibition after 48 hrs by sulforhodamine B assay; format: functional; conditions: U-251, 48 h
[5] = tested on: BT-549; assay: Cytotoxicity against human BT549 cells assessed as growth inhibition after 48 hrs by sulforhodamine B assay; format: functional; conditions: BT-549, 48 h
[6] = tested on: T47D; assay: Cytotoxicity against human T47D cells assessed as growth inhibition after 48 hrs by sulforhodamine B assay; format: functional
[7] = tested on: MDA-MB-468; assay: Cytotoxicity against human MDA-MB-468 cells assessed as growth inhibition after 48 hrs by sulforhodamine B assay; format: functional; conditions: MDA-MB-468, 48 h
[8] = tested on: MCF7; assay: Cytotoxicity against human MCF7 cells assessed as growth inhibition after 48 hrs by MTT assay; format: functional, cell-based; conditions: MCF7, 48 h
[9] = tested on: OVCAR-5; assay: Cytotoxicity against human OVCAR5 cells assessed as cell growth at 0.01 uM after 48 hrs by sulforhodamine B assay relative to control; format: functional; conditions: OVCAR-5, 48 h, read-out: Activity
[10] = tested on: OVCAR-4; assay: Cytotoxicity against human OVCAR4 cells assessed as cell growth at 0.01 uM after 48 hrs by sulforhodamine B assay relative to control; format: functional; conditions: OVCAR-4, 48 h, read-out: Activity
[11] = tested on: HCC 2998; assay: Cytotoxicity against human HCC2998 cells assessed as cell growth at 0.01 uM after 48 hrs by sulforhodamine B assay relative to control; format: functional; conditions: HCC 2998, 48 h, read-out: Activity
[12] = tested on: MOLT-4; assay: Cytotoxicity against human MOLT4 cells assessed as cell growth at 0.01 uM after 48 hrs by sulforhodamine B assay relative to control; format: functional; conditions: MOLT-4, 48 h, read-out: Activity
[13] = tested on: PC-3; assay: Cytotoxicity against human PC3 cells assessed as cell growth at 0.01 uM after 48 hrs by sulforhodamine B assay relative to control; format: functional; conditions: PC-3, 48 h, read-out: Activity
[14] = tested on: NCI-H460; assay: Cytotoxicity against human NCI-H460 cells assessed as cell growth at 0.1 uM after 48 hrs by sulforhodamine B assay relative to control; format: functional; conditions: NCI-H460, 48 h, read-out: Activity
[15] = tested on: SF-268; assay: Cytotoxicity against human SF268 cells assessed as cell growth at 0.1 uM after 48 hrs by sulforhodamine B assay relative to control; format: functional; conditions: SF-268, 48 h, read-out: Activity
[16] = tested on: T47D; assay: Cytotoxicity against human T47D cells assessed as cell growth at 0.1 uM after 48 hrs by sulforhodamine B assay relative to control; format: functional; conditions: read-out: Activity
[17] = tested on: HCT-15; assay: Cytotoxicity against human HCT15 cells assessed as cell growth at 1 uM after 48 hrs by sulforhodamine B assay relative to control; format: functional; conditions: HCT-15, 48 h, read-out: Activity
[18] = tested on: IGROV-1; assay: Cytotoxicity against human IGROV1 cells assessed as cell growth at 1 uM after 48 hrs by sulforhodamine B assay relative to control; format: functional; conditions: IGROV-1, 48 h, read-out: Activity
[19] = tested on: BT-549; assay: Cytotoxicity against human BT549 cells assessed as cell growth at 1 uM after 48 hrs by sulforhodamine B assay relative to control; format: functional; conditions: BT-549, 48 h, read-out: Activity
[20] = tested on: NCI-H226; assay: Cytotoxicity against human NCI-H226 cells assessed as cell growth at 10 uM after 48 hrs by sulforhodamine B assay relative to control; format: functional; conditions: NCI-H226, 48 h, read-out: Activity
[21] = tested on: NCI-H522; assay: Cytotoxicity against human NCI-H522 cells assessed as cell growth at 10 uM after 48 hrs by sulforhodamine B assay relative to control; format: functional; conditions: NCI-H522, 48 h, read-out: Activity
[22] = tested on: SF-539; assay: Cytotoxicity against human SF539 cells assessed as cell growth at 10 uM after 48 hrs by sulforhodamine B assay relative to control; format: functional; conditions: SF-539, 48 h, read-out: Activity
[23] = tested on: SK-MEL-5; assay: Cytotoxicity against human SK-MEL-5 cells assessed as cell growth at 10 uM after 48 hrs by sulforhodamine B assay relative to control; format: functional; conditions: SK-MEL-5, 48 h, read-out: Activity
[24] = tested on: Hs-578T; assay: Cytotoxicity against human Hs 578T cells assessed as cell growth at 10 uM after 48 hrs by sulforhodamine B assay relative to control; format: functional; conditions: read-out: Activity
[25] = tested on: MOLT-4; assay: Cytotoxicity against human MOLT4 cells assessed as cell growth at 100 uM after 48 hrs by sulforhodamine B assay relative to control; format: functional; conditions: MOLT-4, 48 h, read-out: Activity
[26] = tested on: HOP-62; assay: Cytotoxicity against human HOP62 cells assessed as cell growth at 100 uM after 48 hrs by sulforhodamine B assay relative to control; format: functional; conditions: HOP-62, 48 h, read-out: Activity
[27] = tested on: HCT-116; assay: Cytotoxicity against human HCT116 cells assessed as cell growth at 100 uM after 48 hrs by sulforhodamine B assay relative to control; format: functional; conditions: HCT-116, 48 h, read-out: Activity
[28] = tested on: HCT-15; assay: Cytotoxicity against human HCT15 cells assessed as cell growth at 100 uM after 48 hrs by sulforhodamine B assay relative to control; format: functional; conditions: HCT-15, 48 h, read-out: Activity
[29] = tested on: OVCAR-4; assay: Cytotoxicity against human OVCAR4 cells assessed as cell growth at 100 uM after 48 hrs by sulforhodamine B assay relative to control; format: functional; conditions: OVCAR-4, 48 h, read-out: Activity
[30] = tested on: OVCAR-8; assay: Cytotoxicity against human OVCAR8 cells assessed as cell growth at 100 uM after 48 hrs by sulforhodamine B assay relative to control; format: functional; conditions: OVCAR-8, 48 h, read-out: Activity
[31] = tested on: SK-OV-3; assay: Cytotoxicity against human SKOV3 cells assessed as cell growth at 100 uM after 48 hrs by sulforhodamine B assay relative to control; format: functional; conditions: SK-OV-3, 48 h, read-out: Activity
[32] = tested on: 786-0; assay: Cytotoxicity against human 786-0 cells assessed as cell growth at 100 uM after 48 hrs by sulforhodamine B assay relative to control; format: functional; conditions: 786-0, 48 h, read-out: Activity
[33] = tested on: PC-3; assay: Cytotoxicity against human PC3 cells assessed as cell growth at 100 uM after 48 hrs by sulforhodamine B assay relative to control; format: functional; conditions: PC-3, 48 h, read-out: Activity
[34] = tested on: DU-145; assay: Cytotoxicity against human DU145 cells assessed as cell growth at 100 uM after 48 hrs by sulforhodamine B assay relative to control; format: functional; conditions: DU-145, 48 h, read-out: Activity
[35] = tested on: T47D; assay: Cytotoxicity against human T47D cells assessed as cell growth at 100 uM after 48 hrs by sulforhodamine B assay relative to control; format: functional; conditions: read-out: Activity

SMILES: COc1cc(-c2cc(/C=C/C(=O)c3ccc4c(c3)OCO4)[nH]n2)cc(OC)c1OC
- LC50 [1]: > 100 µM
- TGI [1]: 6.36 µM
- LC50 [2]: 23.5 µM
- TGI [2]: 5.17 µM
- TGI [3]: > 100 µM
- CC50 [3]: > 100 µM
- LC50 [4]: 59.5 µM
- TGI [4]: 5.45 µM
- LC50 (concentration killing 50% of cells) [5]: > 100 µM
- LC50 [6]: > 100 µM
- TGI [6]: 17 µM
- GI50 [7]: 1.4 µM
- LC50 [7]: 5.82 µM
- TGI [7]: 2.86 µM
- IC50 [8]: 0.9 µM
- growth at 0.01 µM [9]: 97%
- growth at 0.01 µM [10]: 91%
- growth at 0.01 µM [11]: 104%
- growth at 0.01 µM [12]: 97%
- growth at 0.01 µM [13]: 100%
- growth at 0.1 µM [14]: 105%
- growth at 0.1 µM [15]: 90%
- growth at 0.1 µM [16]: 91%
- growth at 1 µM [17]: 81%
- growth at 1 µM [18]: 99%
- growth at 1 µM [19]: 92%
- growth at 10 µM [20]: 14%
- growth at 10 µM [21]: -88%
- growth at 10 µM [22]: -27%
- growth at 10 µM [23]: 26%
- growth at 10 µM [24]: 17%
- growth at 100 µM [25]: -10%
- growth at 100 µM [26]: -70%
- growth at 100 µM [27]: 1%
- growth at 100 µM [28]: -10%
- growth at 100 µM [29]: 3%
- growth at 100 µM [30]: -33%
- growth at 100 µM [31]: -47%
- growth at 100 µM [32]: -30%
- growth at 100 µM [33]: -38%
- growth at 100 µM [34]: -15%
- growth at 100 µM [35]: -19%

SMILES: COc1cc(C(=O)/C=C/c2cc(-c3ccc4c(c3)OCO4)n[nH]2)cc(OC)c1OC
- GI50 [1]: 2.17 µM
- LC50 [1]: > 100 µM
- TGI [1]: 6.49 µM
- GI50 [2]: 2.33 µM
- LC50 [2]: 24.5 µM
- TGI [2]: 6.24 µM
- GI50 [3]: 2.9 µM
- TGI [3]: 10.3 µM
- CC50 [3]: 40.3 µM
- GI50 [4]: 1.21 µM
- LC50 [4]: 5.13 µM
- TGI [4]: 2.49 µM
- GI50 [5]: 2.02 µM
- LC50 (concentration killing 50% of cells) [5]: 20.1 µM
- TGI [5]: 5 µM
- GI50 [6]: 1.51 µM
- LC50 [6]: 19.9 µM
- TGI [6]: 4.63 µM
- GI50 [7]: 1.4 µM
- LC50 [7]: 8.78 µM
- TGI [7]: 3.5 µM
- IC50 [8]: 0.85 µM
- growth at 0.01 µM [9]: 98%
- growth at 0.01 µM [10]: 97%
- growth at 0.01 µM [11]: 99%
- growth at 0.01 µM [12]: 97%
- growth at 0.01 µM [13]: 97%
- growth at 0.1 µM [14]: 100%
- growth at 0.1 µM [15]: 96%
- growth at 0.1 µM [16]: 77%
- growth at 1 µM [17]: 77%
- growth at 1 µM [18]: 83%
- growth at 1 µM [19]: 89%
- growth at 10 µM [20]: -41%
- growth at 10 µM [21]: -71%
- growth at 10 µM [22]: -75%
- growth at 10 µM [23]: 14%
- growth at 10 µM [24]: 10%
- growth at 100 µM [25]: -13%
- growth at 100 µM [26]: -91%
- growth at 100 µM [27]: -47%
- growth at 100 µM [28]: -45%
- growth at 100 µM [29]: -100%
- growth at 100 µM [30]: -92%
- growth at 100 µM [31]: -98%
- growth at 100 µM [32]: -83%
- growth at 100 µM [33]: -84%
- growth at 100 µM [34]: -97%
- growth at 100 µM [35]: -87%
